pIC50: −log10 of the molar value. *1 amine or outer side, *2 acyl side, *3 side chain or, on linkers, in order; H or OH if unused. Where a SMILES comes first, the peptide text is derived from it. Bridges are numbered along the chain shown (N, C = ends). [ ]: non-standard residue; d: D form. The star is where a group is joined. Phe(3-CF3) = N[C@@H](Cc1cccc(C(F)(F)F)c1)C(=O)O; Phe(4-COOH) = N[C@@H](Cc1ccc(C(=O)O)cc1)C(=O)O; Bip = N[C@@H](Cc1ccc(-c2ccccc2)cc1)C(=O)O; γGlu = O=C(O)[C@H](CCC(=O)[*:2])N[*:1]; Abu(3S-NH2) = C[C@H](N)[C@H](N)C(=O)O; NH(CH2)12COOH = O=C(O)CCCCCCCCCCCCN*; Val(3-OH) = CC(C)(O)[C@H](N)C(=O)O; 4Pal = N[C@@H](Cc1ccncc1)C(=O)O; Cha = N[C@@H](CC1CCCCC1)C(=O)O; Cit = NC(=O)NCCC[C@H](N)C(=O)O; 4Abz = Nc1ccc(C(=O)O)cc1; Carboxymethyl = O=C(O)C*; NMeA = CN[C@@H](C)C(=O)O; Orn = NCCC[C@H](N)C(=O)O; Aun = NCCCCCCCCCCC(=O)O; Dab = NCC[C@H](N)C(=O)O; Dap = NC[C@H](N)C(=O)O; AEEA = NCCOCCOCC(=O)O
Each molecule was assayed against T1, PD-1/PD-L1 interaction (PE-labeled human PD-L1-Ig binding to Jurkat cell line over-expressing human PD-1) (Homo sapiens, UniProt Q15116) (assay: Jurkat-PD-1 Cell Binding High-Content Screening Assay (CBA)). Settings: Jurkat-hPD-1 cells, PE-labeled PD-L1-Ig 20 nM final; read-out: Jurkat HPD1 PDL1 IC50.
T1 construct: expressed in transfected cells; host or cells: Jurkat
T1 sequence (Q15116 25-288): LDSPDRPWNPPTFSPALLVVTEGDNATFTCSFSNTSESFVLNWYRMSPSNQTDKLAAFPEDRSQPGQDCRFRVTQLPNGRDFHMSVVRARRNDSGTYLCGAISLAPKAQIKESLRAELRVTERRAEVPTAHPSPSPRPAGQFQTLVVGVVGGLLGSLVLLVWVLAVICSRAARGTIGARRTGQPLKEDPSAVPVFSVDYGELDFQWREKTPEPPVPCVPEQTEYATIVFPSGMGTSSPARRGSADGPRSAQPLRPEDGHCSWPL
How it was run: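 In this imaging assay, cells in 10% FCS medium see compound for 2 h at 37 °C and then labeled ligand at 20 nM final for 1 h. Paraformaldehyde fixation, Hoechst 33342 staining and dPBS washes precede image capture.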

pIC50 | Structure (SMILES)
7.74 | CC(C)C[C@H]1NC(=O)[C@H](C)N(C)C(=O)[C@H](Cc2ccc(C(=O)O)cc2)NC(=O)[C@H](Cc2ccc(-c3ccccc3)cc2)NC(=O)[C@H](Cc2ccc(C(=O)O)cc2)NC(=O)[C@H](Cc2cccc(C(F)(F)F)c2)NC(=O)[C@H](CC(=O)O)NC(=O)[C@H](Cc2ccc(OCC(=O)O)cc2)NC(=O)[C@H]([C@H](C)N)NC(=O)CSC[C@@H](C(=O)N[C@@H](CCN)C(=O)NCCCCCCCCCCCCC(=O)O)NC(=O)[C@H](CCC(=O)O)NC(=O)[C@H](C(C)C)NC(=O)[C@H](CC2CCCCC2)NC(=O)[C@H](CCN)NC1=O [Example 1199] ({CH2CO}-[Abu(3S-NH2)]Y(Carboxymethyl)D[Phe(3-CF3)][Phe(4-COOH)][Bip][Phe(4-COOH)][NMeA][dL][Dab][Cha]VEC[Dab]-{NH(CH2)12COOH}; thioether N-14)
7.55 | CC(C)C[C@H]1NC(=O)[C@H](C)N(C)C(=O)[C@H](CCC(N)=O)NC(=O)[C@H](Cc2ccc(-c3ccccc3)cc2)NC(=O)[C@H](Cc2ccc(C(=O)O)cc2)NC(=O)[C@H](Cc2cccc(C(F)(F)F)c2)NC(=O)[C@H](CC(=O)O)NC(=O)[C@H](Cc2ccc(OCC(=O)O)cc2)NC(=O)[C@H]([C@H](C)N)NC(=O)CSC[C@@H](C(=O)N[C@@H](CCN)C(=O)NCCOCCOCC(=O)N[C@@H](CCC(=O)NCCOCCOCC(=O)NCCCCCCCCCCCCC(=O)O)C(=O)O)NC(=O)[C@H](CCC(=O)O)NC(=O)[C@H](C(C)C)NC(=O)[C@H](CC2CCCCC2)NC(=O)[C@H](CCN)NC1=O [Example 1200] ({CH2CO}-[Abu(3S-NH2)]Y(Carboxymethyl)D[Phe(3-CF3)][Phe(4-COOH)][Bip]Q[NMeA][dL][Dab][Cha]VEC[Dab][AEEA][γGlu][AEEA]-{NH(CH2)12COOH}; thioether N-14)
7.80 | CC(=O)NCCCC[C@@H]1NC(=O)[C@H](C(C)(C)O)NC(=O)[C@H](CC2CCCCC2)NC(=O)[C@H](CCN)NC(=O)[C@@H](CC(C)C)NC(=O)[C@H](C)N(C)C(=O)[C@H](CCC(N)=O)NC(=O)[C@H](Cc2ccc(-c3ccccc3)cc2)NC(=O)[C@H](Cc2ccc(C(=O)O)cc2)NC(=O)[C@H](Cc2cccc(C(F)(F)F)c2)NC(=O)[C@H](CC(=O)O)NC(=O)[C@H](Cc2ccc(OCC(=O)O)cc2)NC(=O)[C@H]([C@H](C)N)NC(=O)CSC[C@@H](C(=O)N[C@@H](CCN)C(=O)NCCOCCOCC(=O)N[C@@H](CCC(=O)NCCOCCOCC(=O)NCCCCCCCCCCCCC(=O)O)C(=O)O)NC1=O [Example 1202] ({CH2CO}-[Abu(3S-NH2)]Y(Carboxymethyl)D[Phe(3-CF3)][Phe(4-COOH)][Bip]Q[NMeA][dL][Dab][Cha][Val(3-OH)]K(Ac)C[Dab][AEEA][γGlu][AEEA]-{NH(CH2)12COOH}; thioether N-14)
7.67 | CC(C)C[C@H]1NC(=O)[C@H](C)N(C)C(=O)[C@H](CCC(N)=O)NC(=O)[C@H](Cc2ccc(-c3ccccc3)cc2)NC(=O)[C@H](Cc2ccc(C(=O)O)cc2)NC(=O)[C@H](Cc2cccc(C(F)(F)F)c2)NC(=O)[C@H](CC(=O)O)NC(=O)[C@H](Cc2ccc(OCC(=O)O)cc2)NC(=O)[C@H]([C@H](C)N)NC(=O)CSC[C@@H](C(=O)N[C@@H](CCN)C(=O)NCCOCCOCC(=O)N[C@@H](CCC(=O)NCCOCCOCC(=O)NCCCCCCCCCCCCC(=O)O)C(=O)O)NC(=O)[C@H](Cc2c[nH]cn2)NC(=O)[C@H](C(C)(C)O)NC(=O)[C@H](CC2CCCCC2)NC(=O)[C@H](CCN)NC1=O [Example 1203] ({CH2CO}-[Abu(3S-NH2)]Y(Carboxymethyl)D[Phe(3-CF3)][Phe(4-COOH)][Bip]Q[NMeA][dL][Dab][Cha][Val(3-OH)]HC[Dab][AEEA][γGlu][AEEA]-{NH(CH2)12COOH}; thioether N-14)
7.61 | CC(C)C[C@H]1NC(=O)[C@H](C)N(C)C(=O)[C@H](CCCNC(N)=O)NC(=O)[C@H](Cc2ccc(-c3ccccc3)cc2)NC(=O)[C@H](Cc2ccc(C(=O)O)cc2)NC(=O)[C@H](Cc2cccc(C(F)(F)F)c2)NC(=O)[C@H](CC(=O)O)NC(=O)[C@H](Cc2ccc(OCC(=O)O)cc2)NC(=O)[C@H]([C@H](C)N)NC(=O)CSC[C@@H](C(=O)N[C@@H](CCN)C(=O)NCCOCCOCC(=O)N[C@@H](CCC(=O)NCCOCCOCC(=O)NCCCCCCCCCCCCC(=O)O)C(=O)O)NC(=O)[C@H](CO)NC(=O)[C@H](C(C)(C)O)NC(=O)[C@H](CC2CCCCC2)NC(=O)[C@H](CCN)NC1=O [Example 1205] ({CH2CO}-[Abu(3S-NH2)]Y(Carboxymethyl)D[Phe(3-CF3)][Phe(4-COOH)][Bip][Cit][NMeA][dL][Dab][Cha][Val(3-OH)]SC[Dab][AEEA][γGlu][AEEA]-{NH(CH2)12COOH}; thioether N-14)
8.16 | CC(=O)NCCCC[C@@H]1NC(=O)[C@H](C(C)(C)O)NC(=O)[C@H](CC2CCCCC2)NC(=O)[C@H](CCN)NC(=O)[C@@H](CC(C)C)NC(=O)[C@H](C)N(C)C(=O)[C@H](CCCNC(N)=O)NC(=O)[C@H](Cc2ccc(-c3ccccc3)cc2)NC(=O)[C@H](Cc2ccc(C(=O)O)cc2)NC(=O)[C@H](Cc2cccc(C(F)(F)F)c2)NC(=O)[C@H](CC(=O)O)NC(=O)[C@H](Cc2ccc(OCC(=O)O)cc2)NC(=O)[C@H]([C@H](C)N)NC(=O)CSC[C@@H](C(=O)N[C@@H](CCN)C(=O)NCCOCCOCC(=O)N[C@@H](CCC(=O)NCCOCCOCC(=O)NCCCCCCCCCCCCC(=O)O)C(=O)O)NC1=O [Example 1206] ({CH2CO}-[Abu(3S-NH2)]Y(Carboxymethyl)D[Phe(3-CF3)][Phe(4-COOH)][Bip][Cit][NMeA][dL][Dab][Cha][Val(3-OH)]K(Ac)C[Dab][AEEA][γGlu][AEEA]-{NH(CH2)12COOH}; thioether N-14)
8.03 | CC(C)C[C@@H]1NC(=O)[C@H](Cc2c[nH]c3ccccc23)NC(=O)[C@H](CC(=O)O)NC(=O)[C@H](Cc2ccncc2)NC(=O)[C@H](Cc2ccc(OCC(=O)O)cc2)NC(=O)CSC[C@@H](C(=O)N[C@@H](CCN)C(=O)NCCCCCCCCCCC(=O)O)NC(=O)[C@H](CCCN)NC(=O)[C@H](C(C)C)NC(=O)[C@H](CC2CCCCC2)NC(=O)[C@H](CCN)NC(=O)[C@@H](CC(C)C)NC(=O)[C@H](C)N(C)C(=O)[C@H](C(C)C)NC(=O)[C@H](Cc2ccc(-c3ccccc3)cc2)NC1=O [Example 1210] ({CH2CO}-Y(Carboxymethyl)[4Pal]DWL[Bip]V[NMeA][dL][Dab][Cha]V[Orn]C[Dab][Aun]-OH; thioether N-14)

Structure (SMILES) | pIC50
CC(C)C[C@@H]1NC(=O)[C@H](Cc2c[nH]c3ccccc23)NC(=O)[C@H](CC(=O)O)NC(=O)[C@H](Cc2ccncc2)NC(=O)[C@H](Cc2ccc(OCC(=O)O)cc2)NC(=O)CSC[C@@H](C(=O)Nc2ccc(C(=O)NCCCCCCCCCCC(=O)O)cc2)NC(=O)[C@H](CN)NC(=O)[C@H](C(C)C)NC(=O)[C@H](CC2CCCCC2)NC(=O)[C@H](CCN)NC(=O)[C@@H](CC(C)C)NC(=O)[C@H](C)N(C)C(=O)[C@H](C(C)C)NC(=O)[C@H](Cc2ccc(-c3ccccc3)cc2)NC1=O [Example 1211] ({CH2CO}-Y(Carboxymethyl)[4Pal]DWL[Bip]V[NMeA][dL][Dab][Cha]V[Dap]C[4Abz][Aun]-OH; thioether N-14) | 6.43

Source: patent US20260070945A1, “MACROCYCLIC IMMUNOMODULATORS” (Bristol-Myers Squibb Company, priority 2022, published 2026)
